From ChEMBL document CHEMBL3879894, “Novel pharmaceutical composition for prevention and/or treatment of attention deficit/hyperactivity disorder” (2012)

System: Rattus norvegicus
Assay: Prevention of attention deficit/hyperactivity in po dosed spontaneously hypertensive stroke-prone rat assessed as prolongation of cumulative entry latency administered for 30 mins by passive avoidance response test
Format: functional
Conditions: 0.5 h, read-out: MED

In order of rising minimal effective dose:
1. Fc1ccc(Nc2nc(NCc3ncccn3)nc(Nc3ccc(F)cc3)n2)cc1  0.03 mg/kg
2. Fc1ccc(Nc2nc(NCc3ccncn3)nc(Nc3ccc(F)cc3)n2)cc1  0.03 mg/kg
3. Fc1ccc(Nc2nc(NCc3ncccn3)nc(Nc3ccccc3)n2)cc1  0.1 mg/kg
4. COc1ccc(Nc2nc(NCc3ncccn3)nc(Nc3ccc(F)cc3)n2)cc1  0.3 mg/kg
5. Cl.Nc1nc(Nc2ccc(F)cc2)nc(N(Cc2ccnc(F)c2)c2ccccc2)n1  3 mg/kg

System: Rattus norvegicus
Assay: Prevention of attention deficit/hyperactivity in sc dosed spontaneously hypertensive stroke-prone rat assessed as prolongation of cumulative entry latency administered for 30 mins by passive avoidance response test
Format: functional
Conditions: 0.5 h, read-out: MED

`COC(=O)C(c1ccccc1)C1CCCCN1` (stereo unspecified) [METHYLPHENIDATE] gave a minimal effective dose of 0.1 mg/kg.
